Test results as given in PubChem BioAssay (NCI).
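Values below derive from 48-hour exposures of cells grown in 96-well plates, with endpoints linearly interpolated between the two concentrations bracketing the appropriate inhibition level. GI50 = concentration required for 50% inhibition of growth. TGI: total growth inhibition.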

Tests used:
Assay in all cases: NCI tumour cell line growth inhibition, 48 h
[1] = system: HL-60(TB) leukemia
[2] = system: SN12C renal
[3] = system: MDA-MB-435
[4] = system: T-47D breast
[5] = system: HCT-116 colon
[6] = system: NCI-H23 lung
[7] = system: SNB-75 CNS
[8] = system: NCI-H460 lung
[9] = system: UACC-62 melanoma
[10] = system: SF-268 CNS
[11] = system: NCI/ADR-RES ovarian
[12] = system: DU-145 prostate
[13] = system: UACC-257 melanoma
[14] = system: SK-OV-3 ovarian
[15] = system: MDA-MB-231 breast
[16] = system: M14 melanoma
[17] = system: CCRF-CEM leukemia
[18] = system: MALME-3M melanoma
[19] = system: A498 renal
[20] = system: TK-10 renal
[21] = system: SF-539 CNS
[22] = system: RXF 393 renal
[23] = system: CAKI-1 renal
[24] = system: OVCAR-3 ovarian
[25] = system: HOP-92 NSCLC
[26] = system: HOP-62 NSCLC
[27] = system: SK-MEL-2 melanoma
[28] = system: OVCAR-5 ovarian
[29] = system: RPMI-8226 leukemia
[30] = system: SK-MEL-28 melanoma
[31] = system: ACHN renal
[32] = system: NCI-H226 lung
[33] = system: U251 CNS
[34] = system: SR leukemia
[35] = system: LOX IMVI melanoma
[36] = system: EKVX NSCLC
[37] = system: BT-549 breast
[38] = system: KM12 colon
[39] = system: A549 NSCLC
[40] = system: HS 578T breast
[41] = system: SF-295 CNS
[42] = system: OVCAR-4 ovarian
[43] = system: OVCAR-8 ovarian
[44] = system: HCC-2998 colon
[45] = system: UO-31 renal
[46] = system: K-562 leukemia
[47] = system: MDA-MB-468 breast
[48] = system: IGROV1 ovarian
[49] = system: 786-0 renal
[50] = system: HCT-15 colon
[51] = system: MOLT-4 leukemia
[52] = system: NCI-H522 lung
[53] = system: SNB-19 CNS
[54] = system: SW-620 colon
[55] = system: PC-3 prostate
[56] = system: MCF7 breast

Question: With `COc1ccc(N(C)c2cc(C#N)nc3ccccc23)cc1/C=C/C(=O)NO` as the molecule, how does the GI50 [1] read?
Answer: < 0.01 µM

Question: What about the TGI [1] of the same molecule?
Answer: < 0.01 µM

Question: And the GI50 [2]?
Answer: < 0.01 µM

Question: What about the TGI [2] of the same molecule?
Answer: 5.95 µM

Question: And the GI50 [3]?
Answer: < 0.01 µM

Question: And the TGI [3]?
Answer: < 0.01 µM

Question: And the GI50 [4]?
Answer: 2.34 µM

Question: And the TGI [4]?
Answer: 80.1 µM

Question: And the GI50 [5]?
Answer: < 0.01 µM

Question: What about the TGI [5] of the same molecule?
Answer: 1.39 µM

Question: What about the GI50 [6] of the same molecule?
Answer: < 0.01 µM

Question: And the TGI [6]?
Answer: 1.25 µM

Question: What about the GI50 [7] of the same molecule?
Answer: < 0.01 µM

Question: And the TGI [7]?
Answer: 2.62 µM

Question: And the GI50 [8]?
Answer: < 0.01 µM

Question: And the TGI [8]?
Answer: 3.65 µM

Question: What about the GI50 [9] of the same molecule?
Answer: < 0.01 µM

Question: And the TGI [9]?
Answer: 2.1 µM

Question: And the GI50 [10]?
Answer: < 0.01 µM

Question: And the TGI [10]?
Answer: 14.2 µM

Question: What about the GI50 [11] of the same molecule?
Answer: < 0.01 µM

Question: What about the TGI [11] of the same molecule?
Answer: < 0.01 µM

Question: What about the GI50 [12] of the same molecule?
Answer: < 0.01 µM

Question: What about the TGI [12] of the same molecule?
Answer: 16.8 µM

Question: And the GI50 [13]?
Answer: 1.68 µM

Question: And the TGI [13]?
Answer: 20.3 µM

Question: And the GI50 [14]?
Answer: < 0.01 µM

Question: And the TGI [14]?
Answer: 12.4 µM

Question: What about the GI50 [15] of the same molecule?
Answer: < 0.01 µM

Question: And the TGI [15]?
Answer: < 0.01 µM

Question: And the GI50 [16]?
Answer: < 0.01 µM

Question: And the TGI [16]?
Answer: 1.86 µM

Question: What about the GI50 [17] of the same molecule?
Answer: < 0.01 µM

Question: What about the GI50 [18] of the same molecule?
Answer: < 0.01 µM

Question: And the TGI [18]?
Answer: 8.74 µM

Question: What about the GI50 [19] of the same molecule?
Answer: 15.7 µM

Question: What about the TGI [19] of the same molecule?
Answer: 54.2 µM

Question: And the GI50 [20]?
Answer: 2.22 µM

Question: What about the TGI [20] of the same molecule?
Answer: 57.1 µM

Question: What about the GI50 [21] of the same molecule?
Answer: < 0.01 µM

Question: And the TGI [21]?
Answer: < 0.01 µM

Question: And the GI50 [22]?
Answer: < 0.0435 µM

Question: What about the TGI [22] of the same molecule?
Answer: 3.83 µM

Question: What about the GI50 [23] of the same molecule?
Answer: < 0.01 µM

Question: And the TGI [23]?
Answer: 6.22 µM

Question: And the GI50 [24]?
Answer: < 0.01 µM

Question: What about the TGI [24] of the same molecule?
Answer: 6.18 µM

Question: And the TGI [25]?
Answer: 9.06 µM

Question: What about the GI50 [26] of the same molecule?
Answer: < 0.01 µM

Question: What about the TGI [26] of the same molecule?
Answer: 15.3 µM

Question: And the GI50 [27]?
Answer: < 0.01 µM

Question: What about the TGI [27] of the same molecule?
Answer: 0.63 µM

Question: What about the GI50 [28] of the same molecule?
Answer: < 0.01 µM

Question: What about the TGI [28] of the same molecule?
Answer: 10.7 µM

Question: What about the GI50 [29] of the same molecule?
Answer: < 0.01 µM

Question: And the TGI [29]?
Answer: 19.2 µM

Question: And the GI50 [30]?
Answer: 0.551 µM

Question: And the TGI [30]?
Answer: 3.72 µM

Question: What about the GI50 [31] of the same molecule?
Answer: < 0.01 µM

Question: And the TGI [31]?
Answer: 11.7 µM

Question: What about the GI50 [32] of the same molecule?
Answer: < 0.01 µM

Question: What about the TGI [32] of the same molecule?
Answer: 5.82 µM

Question: And the GI50 [33]?
Answer: < 0.01 µM

Question: What about the TGI [33] of the same molecule?
Answer: 9.38 µM

Question: What about the GI50 [34] of the same molecule?
Answer: < 0.01 µM

Question: And the GI50 [35]?
Answer: < 0.01 µM

Question: And the TGI [35]?
Answer: 1.4 µM

Question: And the GI50 [36]?
Answer: < 0.01 µM

Question: And the TGI [36]?
Answer: 13.5 µM

Question: And the GI50 [37]?
Answer: < 0.01 µM

Question: What about the TGI [37] of the same molecule?
Answer: 1.91 µM

Question: And the GI50 [38]?
Answer: < 0.01 µM

Question: What about the TGI [38] of the same molecule?
Answer: 1.22 µM

Question: What about the GI50 [39] of the same molecule?
Answer: < 0.01 µM

Question: What about the TGI [39] of the same molecule?
Answer: 22.4 µM

Question: And the GI50 [40]?
Answer: < 0.01 µM

Question: What about the TGI [40] of the same molecule?
Answer: 9.65 µM

Question: And the GI50 [41]?
Answer: < 0.01 µM

Question: And the GI50 [42]?
Answer: 1.19 µM

Question: And the TGI [42]?
Answer: 16.9 µM

Question: What about the GI50 [43] of the same molecule?
Answer: < 0.01 µM

Question: And the GI50 [44]?
Answer: < 0.01 µM

Question: And the TGI [44]?
Answer: < 0.01 µM

Question: And the GI50 [45]?
Answer: < 0.01 µM

Question: And the TGI [45]?
Answer: 12.1 µM

Question: And the GI50 [46]?
Answer: < 0.01 µM

Question: And the TGI [46]?
Answer: > 40.3 µM

Question: And the GI50 [47]?
Answer: < 0.01 µM

Question: What about the TGI [47] of the same molecule?
Answer: < 0.01 µM

Question: What about the GI50 [48] of the same molecule?
Answer: < 0.01 µM

Question: And the TGI [48]?
Answer: 4.55 µM

Question: What about the GI50 [49] of the same molecule?
Answer: < 0.01 µM

Question: And the TGI [49]?
Answer: 15 µM

Question: And the GI50 [50]?
Answer: < 0.01 µM

Question: And the TGI [50]?
Answer: 19.7 µM

Question: What about the GI50 [51] of the same molecule?
Answer: < 0.01 µM

Question: What about the TGI [51] of the same molecule?
Answer: > 35.9 µM

Question: What about the GI50 [52] of the same molecule?
Answer: < 0.01 µM

Question: What about the TGI [52] of the same molecule?
Answer: < 0.01 µM

Question: What about the GI50 [53] of the same molecule?
Answer: < 0.01 µM

Question: What about the TGI [53] of the same molecule?
Answer: 15.1 µM

Question: And the GI50 [54]?
Answer: < 0.01 µM

Question: What about the TGI [54] of the same molecule?
Answer: 15.2 µM

Question: And the GI50 [55]?
Answer: < 0.01 µM

Question: What about the TGI [55] of the same molecule?
Answer: > 40.8 µM

Question: What about the GI50 [56] of the same molecule?
Answer: < 0.01 µM

Question: And the TGI [56]?
Answer: 17.4 µM
